Measurements reported in the supplement of paper PMC10307832.

Assays:
Experiment in all cases: relative viability (nuclei count vs DMSO), 5 days (fraction); higher = more cells survive
Lenalidomide = compound: Nc1cccc2c1CN(C1CCC(=O)NC1=O)C2=O [Lenalidomide]
In short: (§1)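 Lung cancer cell lines were seeded into 1536-well plates, kept overnight at 37 °C and pinned with five library-drug doses (not always all listed) spaced by √10. After 5 days, nuclei were Hoechst-stained, imaged at 4× and counted with MetaXpress. Viability is treated-well nuclei over vehicle-well nuclei, taken as a median across plates. Plates needed control CV below 25% and at least one doubling.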

Nilotinib = compound: Cc1cn(-c2cc(NC(=O)c3ccc(C)c(Nc4nccc(-c5cccnc5)n4)c3)cc(C(F)(F)F)c2)cn1 [Nilotinib]
In short: as §1

MIM1 = compound: CC1=CSC(=NC2CCCCC2)N1/N=C/C3=C(C(=C(C=C3)O)O)O [MIM1]
In short: as §1

Saracatinib = compound: CN1CCN(CCOc2cc(OC3CCOCC3)c3c(Nc4c(Cl)ccc5c4OCO5)ncnc3c2)CC1 [Saracatinib]
In short: as §1

Luminespib = compound: CCNC(=O)c1noc(-c2cc(C(C)C)c(O)cc2O)c1-c1ccc(CN2CCOCC2)cc1 [Luminespib]
In short: as §1

LU99A
relative viability (Lenalidomide; 0.253 µM): 0.919
relative viability (Lenalidomide; 0.8 µM): 0.902
relative viability (Lenalidomide; 2.53 µM): 1.05
relative viability (Lenalidomide; 8 µM): 0.601
relative viability (Nilotinib; 0.001 µM): 0.892
relative viability (Nilotinib; 0.003162 µM): 1.02
relative viability (Nilotinib; 0.01 µM): 0.919
relative viability (Nilotinib; 0.03162 µM): 0.831
relative viability (Nilotinib; 0.1 µM): 0.558
relative viability (MIM1; 0.2 µM): 0.995
relative viability (MIM1; 0.6325 µM): 0.909
relative viability (MIM1; 2 µM): 0.949
relative viability (MIM1; 6.325 µM): 0.802
relative viability (MIM1; 20 µM): 0.323
relative viability (Saracatinib; 0.02 µM): 0.983
relative viability (Saracatinib; 0.2 µM): 0.86
relative viability (Saracatinib; 0.6325 µM): 0.853
relative viability (Saracatinib; 2 µM): 0.757
relative viability (Luminespib; 0.002 µM): 1.05
relative viability (Luminespib; 0.006325 µM): 0.94
relative viability (Luminespib; 0.01 µM, anchor plate): 0.247
relative viability (Luminespib; 0.02 µM): 0.508
relative viability (Luminespib; 0.06325 µM): 0.241
relative viability (Luminespib; 0.2 µM): 0.124

NCI-H522
relative viability (Lenalidomide; 0.253 µM): 0.896
relative viability (Lenalidomide; 0.8 µM): 0.816
relative viability (Lenalidomide; 2.53 µM): 1.07
relative viability (Lenalidomide; 8 µM): 0.886
relative viability (Nilotinib; 0.003162 µM): 0.974
relative viability (Nilotinib; 0.01 µM): 0.996
relative viability (Nilotinib; 0.03162 µM): 0.89
relative viability (Nilotinib; 0.1 µM): 0.722
relative viability (MIM1; 0.2 µM): 1.13
relative viability (MIM1; 0.6325 µM): 0.893
relative viability (MIM1; 2 µM): 0.865
relative viability (MIM1; 6.325 µM): 0.859
relative viability (MIM1; 20 µM): 0.607
relative viability (Saracatinib; 0.02 µM): 0.917
relative viability (Saracatinib; 0.2 µM): 0.705
relative viability (Saracatinib; 0.6325 µM): 0.907
relative viability (Saracatinib; 2 µM): 0.732
relative viability (Luminespib; 0.002 µM): 0.945
relative viability (Luminespib; 0.006325 µM): 0.935
relative viability (Luminespib; 0.01 µM, anchor plate): 1.16
relative viability (Luminespib; 0.02 µM): 0.73
relative viability (Luminespib; 0.06325 µM): 0.617
relative viability (Luminespib; 0.2 µM): 0.391

LXF-289
relative viability (Lenalidomide; 0.253 µM): 0.981
relative viability (Lenalidomide; 0.8 µM): 1.03
relative viability (Lenalidomide; 2.53 µM): 1.11
relative viability (Lenalidomide; 8 µM): 1.07
relative viability (Nilotinib; 0.001 µM): 0.937
relative viability (Nilotinib; 0.003162 µM): 1.19
relative viability (Nilotinib; 0.01 µM): 1.15
relative viability (Nilotinib; 0.03162 µM): 0.96
relative viability (Nilotinib; 0.1 µM): 0.576
relative viability (MIM1; 0.2 µM): 1.04
relative viability (MIM1; 0.6325 µM): 0.741
relative viability (MIM1; 2 µM): 1.04
relative viability (MIM1; 6.325 µM): 0.737
relative viability (MIM1; 20 µM): 0.503
relative viability (Saracatinib; 0.02 µM): 0.997
relative viability (Saracatinib; 0.2 µM): 0.944
relative viability (Saracatinib; 0.6325 µM): 1.02
relative viability (Saracatinib; 2 µM): 1.01
relative viability (Luminespib; 0.002 µM): 0.974
relative viability (Luminespib; 0.006325 µM): 0.979
relative viability (Luminespib; 0.01 µM, anchor plate): 0.681
relative viability (Luminespib; 0.02 µM): 1.09
relative viability (Luminespib; 0.06325 µM): 0.85
relative viability (Luminespib; 0.2 µM): 0.195

HCC-366
relative viability (Lenalidomide; 0.253 µM): 1.02
relative viability (Lenalidomide; 0.8 µM): 0.989
relative viability (Lenalidomide; 2.53 µM): 1.07
relative viability (Lenalidomide; 8 µM): 0.934
relative viability (Nilotinib; 0.001 µM): 0.982
relative viability (Nilotinib; 0.003162 µM): 1.12
relative viability (Nilotinib; 0.01 µM): 1.24
relative viability (Nilotinib; 0.03162 µM): 0.971
relative viability (Nilotinib; 0.1 µM): 0.527
relative viability (MIM1; 0.2 µM): 0.991
relative viability (MIM1; 2 µM): 0.973
relative viability (MIM1; 6.325 µM): 0.216
relative viability (MIM1; 20 µM): 0.0492
relative viability (Saracatinib; 0.02 µM): 1.07
relative viability (Saracatinib; 0.2 µM): 0.731
relative viability (Saracatinib; 0.6325 µM): 0.952
relative viability (Saracatinib; 2 µM): 0.77
relative viability (Luminespib; 0.002 µM): 0.988
relative viability (Luminespib; 0.006325 µM): 0.987
relative viability (Luminespib; 0.02 µM): 0.998
relative viability (Luminespib; 0.06325 µM): 0.0511
relative viability (Luminespib; 0.2 µM): 0.053

COR-L 105
relative viability (Lenalidomide; 0.253 µM): 0.976
relative viability (Lenalidomide; 0.8 µM): 0.971
relative viability (Lenalidomide; 2.53 µM): 1.05
relative viability (Lenalidomide; 8 µM): 1.01
relative viability (Nilotinib; 0.001 µM): 1.11
relative viability (Nilotinib; 0.003162 µM): 0.915
relative viability (Nilotinib; 0.01 µM): 1.13
relative viability (Nilotinib; 0.03162 µM): 0.87
relative viability (Nilotinib; 0.1 µM): 0.845
relative viability (MIM1; 0.2 µM): 1
relative viability (MIM1; 0.6325 µM): 0.878
relative viability (MIM1; 2 µM): 0.986
relative viability (MIM1; 6.325 µM): 0.769
relative viability (MIM1; 20 µM): 0.412
relative viability (Saracatinib; 0.02 µM): 1.08
relative viability (Saracatinib; 0.2 µM): 0.868
relative viability (Saracatinib; 0.6325 µM): 0.769
relative viability (Saracatinib; 2 µM): 0.542
relative viability (Luminespib; 0.002 µM): 0.873
relative viability (Luminespib; 0.006325 µM): 0.913
relative viability (Luminespib; 0.01 µM, anchor plate): 0.822
relative viability (Luminespib; 0.02 µM): 0.627
relative viability (Luminespib; 0.06325 µM): 0.232
relative viability (Luminespib; 0.2 µM): 0.24

NCI-H1944
relative viability (Lenalidomide; 0.253 µM): 0.989
relative viability (Lenalidomide; 0.8 µM): 0.743
relative viability (Lenalidomide; 2.53 µM): 0.973
relative viability (Lenalidomide; 8 µM): 0.713
relative viability (Nilotinib; 0.001 µM): 1
relative viability (Nilotinib; 0.003162 µM): 1.11
relative viability (Nilotinib; 0.01 µM): 1.21
relative viability (Nilotinib; 0.03162 µM): 0.924
relative viability (Nilotinib; 0.1 µM): 0.988
relative viability (MIM1; 0.2 µM): 0.982
relative viability (MIM1; 0.6325 µM): 0.864
relative viability (MIM1; 2 µM): 0.63
relative viability (MIM1; 6.325 µM): 0.568
relative viability (MIM1; 20 µM): 0.477
relative viability (Saracatinib; 0.02 µM): 0.996
relative viability (Saracatinib; 0.6325 µM): 0.915
relative viability (Saracatinib; 2 µM): 0.555
relative viability (Luminespib; 0.002 µM): 0.936
relative viability (Luminespib; 0.006325 µM): 0.954
relative viability (Luminespib; 0.01 µM, anchor plate): 0.749
relative viability (Luminespib; 0.02 µM): 0.595
relative viability (Luminespib; 0.06325 µM): 0.721
relative viability (Luminespib; 0.2 µM): 0.333

EKVX
relative viability (Lenalidomide; 0.253 µM): 0.988
relative viability (Lenalidomide; 0.8 µM): 0.803
relative viability (Lenalidomide; 2.53 µM): 1.05
relative viability (Lenalidomide; 8 µM): 0.846
relative viability (Nilotinib; 0.001 µM): 0.823
relative viability (Nilotinib; 0.003162 µM): 1.16
relative viability (Nilotinib; 0.01 µM): 1.15
relative viability (Nilotinib; 0.03162 µM): 0.854
relative viability (Nilotinib; 0.1 µM): 0.659
relative viability (MIM1; 0.2 µM): 0.94
relative viability (MIM1; 0.6325 µM): 1
relative viability (MIM1; 2 µM): 0.881
relative viability (MIM1; 6.325 µM): 0.604
relative viability (MIM1; 20 µM): 0.511
relative viability (Saracatinib; 0.02 µM): 1.03
relative viability (Saracatinib; 0.2 µM): 0.738
relative viability (Saracatinib; 0.6325 µM): 0.966
relative viability (Saracatinib; 2 µM): 0.631
relative viability (Luminespib; 0.002 µM): 0.956
relative viability (Luminespib; 0.006325 µM): 0.724
relative viability (Luminespib; 0.01 µM, anchor plate): 0.851
relative viability (Luminespib; 0.02 µM): 0.655
relative viability (Luminespib; 0.06325 µM): 0.878
relative viability (Luminespib; 0.2 µM): 0.356
